Columns and labels:
Format in all cases: functional
Conditions in all cases: route subcutaneous
Rattus norvegicus [1] = assay: Anti-inflammatory activity in Rattus norvegicus albino (rat) assessed as reduction in carrageenan-induced paw volume at 5 mg/kg, sc pretreated 2 hr before carrageenan challenge measured after 1 hr by plethysmometer (reference value: 1.95 +/- 0.03 to 2 ml)
Rattus norvegicus [2] = assay: Anti-inflammatory activity in Rattus norvegicus albino (rat) assessed as reduction in carrageenan-induced paw volume at 5 mg/kg, sc pretreated 1 hr before carrageenan challenge measured after 1 hr by plethysmometer (reference value: 1.95 +/- 0.03 to 2 ml)
Rattus norvegicus [3] = assay: Anti-inflammatory activity in Rattus norvegicus albino (rat) assessed as reduction in carrageenan-induced paw volume at 5 mg/kg, sc pretreated 4 hr before carrageenan challenge measured after 1 hr by plethysmometer (reference value: 1.95 +/- 0.03 to 2 ml)
Rattus norvegicus [4] = assay: Anti-inflammatory activity in Rattus norvegicus albino (rat) assessed as reduction in carrageenan-induced paw volume at 5 mg/kg, sc pretreated 3 hr before carrageenan challenge measured after 1 hr by plethysmometer (reference value: 1.95 +/- 0.03 to 2 ml)

Row | Compound | Activity (Rattus norvegicus [1]) [mL] | Activity (Rattus norvegicus [2]) [mL] | Activity (Rattus norvegicus [3]) [mL] | Activity (Rattus norvegicus [4]) [mL]
1 | O=C(O)Cc1ccccc1Nc1c(Cl)cccc1Cl [DICLOFENAC] | 0.57 | 0.92 | 0.03 | 0.3
2 | O=c1ccc(C2Nc3ccccc3NC2c2ccc(Cl)cc2)n[nH]1 (stereo not drawn) | 1.93 | 1.93 | 2.12 | 2
3 | O=c1ccc(C2Nc3ccccc3NC2c2ccccc2)n[nH]1 (stereo not drawn) | 2.02 | 2 | 2.07 | 2
4 | O=c1ccc(-c2nc3ccccc3nc2-c2ccc(Cl)cc2)n[nH]1 | 0.95 | 1.48 | 0.03 | 0.55
5 | COc1ccc(-c2nc3ccccc3nc2-c2ccc(=O)[nH]n2)cc1 | 1.5 | 1.55 | 1.27 | 1.38
6 | COc1ccc(C2Nc3ccccc3NC2c2ccc(=O)[nH]n2)cc1 (stereo not drawn) | 1.42 | 1.58 | 1.32 | 1.38
7 | O=c1ccc(-c2nc3ccccc3nc2-c2ccccc2)n[nH]1 | 1.37 | 1.97 | 0.38 | 1
